Measured values reported in EP0170024A2, “Use of 2-acylaminomethyl-1,4-benzodiazepine derivatives for the production of pharmaceutical compositions and process for the preparation for pharmaceutical compositions” (priority 1984, dated 1986).
Like-named read-outs stand apart in the source and are kept apart here.

Assays:
CCK receptor (pancreas) = target: T1, CCK receptor (pancreas) (Rattus norvegicus, UniProt P30551); test: CCK receptor binding (pancreas), 125I-CCK-33 receptor binding assay; conditions: for IC50: inhibition of 50% of the 125I-CCK binding, rat pancreas membranes, 37°C, 30 minutes
T1 construct: The whole pancreas of a male Sprague-Dawley rat (200-350 g), which had been sacrificed by decapitation, was dissected free of fat tissue and homogenized; from tissue; host or cells: rat pancreas membrane homogenate
T1 sequence (P30551 1-444): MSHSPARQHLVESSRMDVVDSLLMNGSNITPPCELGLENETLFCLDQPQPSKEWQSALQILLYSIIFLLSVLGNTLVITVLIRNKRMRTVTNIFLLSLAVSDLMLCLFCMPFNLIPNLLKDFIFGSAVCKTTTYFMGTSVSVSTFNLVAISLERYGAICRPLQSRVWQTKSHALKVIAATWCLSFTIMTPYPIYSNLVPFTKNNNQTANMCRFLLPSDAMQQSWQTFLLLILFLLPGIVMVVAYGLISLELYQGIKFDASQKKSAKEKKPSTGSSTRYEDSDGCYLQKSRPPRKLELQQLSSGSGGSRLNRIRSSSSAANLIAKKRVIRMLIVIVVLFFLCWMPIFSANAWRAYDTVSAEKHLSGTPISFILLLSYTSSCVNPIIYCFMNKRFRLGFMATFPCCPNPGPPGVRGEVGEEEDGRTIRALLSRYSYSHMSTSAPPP
Source text: Screening of these known compounds to determine biological activity and obtain an IC50 value for them to identify significant CCK-antagonism may be accomplished using an 125I-CCK receptor binding assay and in vitro isolated tissue preparations. These tests involve the following: • CCK receptor binding (pancreas) method
CCK-33 was radiolabeled with ^125I-Bolton Hunter reagent (2000 Ci/mmole), as described by Sankara et al. (J. Biol. Chem., 254, 9349-9351, 1979).
The whole pancreas of a male Sprague-Dawley rat (200-350 g), which had been sacrificed by decapitation, was dissected free of fat tissue and homogenized in 20 volumes of ice-cold 50 mM Tris HC1 (pH 7.7 at 25°C) with a Brinkmann Polytron PT-10. The homogenates were centrifuged at 48,000g for 10 minutes, then the resulting pellets were resuspended in Tris Buffer, centrifuged as above, and resuspended in 200 volumes of binding assay buffer (50 mM Tris HC1, pH 7.7 at 25°C, 5 mM dithiothreitol, 0.1 mM bacitracin, 1.2 mM phenylmethane sulfonyl fluoride and 0.5 mM o-phenanthroline).
All assays were run in duplicate or triplicate, and the reaction mixtures were incubated at 37°C for 30 minutes and centrifuged in a Beckman Microfuge (4 minutes) immediately after adding 1 ml of ice-cold incubation buffer. The supernatant was aspirated and discarded, and the pellets were counted with a Beckman gamma 5000.

[1] = system: CCK-8 response in guinea pig gall bladder; test: Isolated guinea pig gall bladder, CCK-8 contractile response; conditions: compound at 2 uM, added at least 5 minutes before CCK-8
Procedure: Isolated guinea pig gall bladder method
The two halves of the gall bladders, free of adjacent tissue, of male Hartley guinea pigs (400-600 q), which had been sacrificed by ? were suspended under 1 g tension along the axis of the bile duct in 5 ml organ bath, containing a Kreb's bicarbonate solution of 118 mM NaCl, 4.75 mM KC1, 2.54 CaCl2, 1.19 mM KH2PO4, 1.2 mM MgS04, 25 mM NaHC03 and 11 mM dextrose, which is maintained at 32°C and bubbled with a mixture of 95% 02 and 5% C02. The tissues were washed every 10 minutes for 1 hour to obtain equilibrium prior to the beginning of the study and the isometric contractions of the strips were recorded using Statham (60 g:0.12 mm) strain gauges and a Hewlett-Packard 77588 recorder.
CCK-8 was added cumulatively to the baths and the EC50's were determined using regression analysis. After washout (every 10 minutes-for 1 hour), the compound to be tested was added at least 5 minutes before the addition of CCK-8 and the EC50 of CCK-8 in the presence of the compound to be tested was also simillarly determined.

[2] = read-out: IC50 (µM) CCK Pancreas

SMILES | IC50 (CCK receptor (pancreas); IC50 (µM) CCK Pancreas) [µM] | IC50 (CCK receptor (pancreas); [2]) [µM] | other results
CN1c2ccccc2C(c2ccccc2F)=NCC1CNC(=O)c1ccsc1 (racemic) [Compound 2, (±)-1-methyl-2-(thiophene-3-carbonyl) aminomethyl-5-(2'-fluorophenyl)-2,3-dihydro-l,4-benzodiazepine] | 0.2 | – | mechanism of inhibition of specific 125I-CCK-33 receptor binding (Scatchard analysis) (CCK receptor (pancreas); absence and presence of 0.2 µM of compound, increased the KD without affecting the Bmax): competitively inhibited specific ^125I-CCK-33 receptor binding; effect on CCK dose response curve [1]: parallel shift to the right of the CCK dose response curve without reduction of the maximal contractile response
CN1c2ccccc2C(c2ccccc2F)=NCC1CNC(=O)c1ccsc1 (single isomer, unassigned; (+)) [Compound 6, (+)-1-methyl-2-(thiophene-3-carbonyl)aminomethyl-5-(2-fluorophenyl)-lH-2,3-dihydro-1,4-benzodiazepine] | 13.9 | – | –
CN1c2ccccc2C(c2ccccc2F)=NCC1CNC(=O)c1ccsc1 (single isomer, unassigned; (-)) [Compound 1, (-)-1-methyl-2-(thiophene-3-carbonyl)aminomethyl-5-(2'-fluorophenyl)-1H-2,3-dihydro-1,4-benzodiazepine] | 0.1 | – | –
CN1c2ccccc2C(c2ccccc2F)=NCC1CNC(=O)c1ccc(Cl)cc1 (stereo not drawn) [Compound 3, l-methyl-2-(4'-chlorophenylcarbonyl) aminomethyl-5-(2'-fluorophenyl)-3H-2,3-dihydro-1,4-benzodiazepine] | – | 0.8 | –
CN1c2ccccc2C(c2ccccc2F)=NCC1CNC(=O)c1ccccc1F (stereo not drawn) [Compound 4, l-methyl-2-(2-fluorophenyl-carbonyl)aminomethyl-5-(2'-fluorophenyl)-lH-2,3-dihydro-1,4-benzodiazepine] | – | 2.9 | –
CN1c2ccccc2C(c2ccccc2F)=NCC1CN1C(=O)c2ccccc2C1=O (stereo not drawn) [Compound 5, [(1-methyl-5-(2'-fluorophenyl)-lH-l,4-benzopin-2-yl)methyl]-lH-isoindole-1,3-(2H)-dione] | – | 4.3 | –
CN1c2ccccc2C(c2ccccc2F)=NCC1CNC(=O)c1cccnc1 (stereo not drawn) [Compound 7, 1-methyl-2-(pyridine-3-carbonyl)aminomethyl-5-(2'-fluorophenyl)-1H-2,3-dihydro-1,4-benzodiazepine] | – | 10 | –
